Columns and labels:
[1] = biological target: Phosphatidylinositol 3-kinase C2 domain-containing subunit gamma (Homo sapiens) (UniProt O75747); conditions: Compound concentration 1000.0 nM
[2] = biological target: Tyrosine-protein kinase Tec (Homo sapiens) (UniProt P42680); conditions: Compound concentration 1000.0 nM
[3] = biological target: Protein kinase C delta type (Homo sapiens) (UniProt Q05655); conditions: Compound concentration 1000.0 nM
[4] = biological target: LIM domain kinase 2 (Homo sapiens) (UniProt P53671); conditions: Compound concentration 1000.0 nM
[5] = biological target: Activin receptor type-1B (Homo sapiens) (UniProt P36896); conditions: Compound concentration 1000.0 nM
[6] = biological target: Cyclin-dependent kinase 3 (Homo sapiens) (UniProt Q00526); conditions: Compound concentration 1000.0 nM
[7] = biological target: Death-associated protein kinase 1 (Homo sapiens) (UniProt P53355); conditions: Compound concentration 1000.0 nM
[8] = biological target: Serine/threonine-protein kinase DCLK2 (Homo sapiens) (UniProt Q8N568); conditions: Compound concentration 1000.0 nM
[9] = biological target: MAP kinase-activated protein kinase 5 (Homo sapiens) (UniProt Q8IW41); conditions: Compound concentration 1000.0 nM
[10] = biological target: Beta-1 adrenergic receptor (Homo sapiens) (UniProt P08588); conditions: Compound concentration 10.0 uM
[11] = biological target: Sodium-dependent dopamine transporter (Homo sapiens) (UniProt Q01959); conditions: Compound concentration 10.0 uM
[12] = biological target: Ephrin type-B receptor 4 (Homo sapiens) (UniProt P54760); conditions: Compound concentration 1000.0 nM
[13] = biological target: Tyrosine-protein kinase HCK (Homo sapiens) (UniProt P08631); conditions: Compound concentration 1000.0 nM
[14] = biological target: Mitogen-activated protein kinase kinase kinase 20 (Homo sapiens) (UniProt Q9NYL2); conditions: Compound concentration 1000.0 nM
Sequence of Mitogen-activated protein kinase kinase kinase 20 (Homo sapiens) (Q9NYL2 2-800 limits assumed): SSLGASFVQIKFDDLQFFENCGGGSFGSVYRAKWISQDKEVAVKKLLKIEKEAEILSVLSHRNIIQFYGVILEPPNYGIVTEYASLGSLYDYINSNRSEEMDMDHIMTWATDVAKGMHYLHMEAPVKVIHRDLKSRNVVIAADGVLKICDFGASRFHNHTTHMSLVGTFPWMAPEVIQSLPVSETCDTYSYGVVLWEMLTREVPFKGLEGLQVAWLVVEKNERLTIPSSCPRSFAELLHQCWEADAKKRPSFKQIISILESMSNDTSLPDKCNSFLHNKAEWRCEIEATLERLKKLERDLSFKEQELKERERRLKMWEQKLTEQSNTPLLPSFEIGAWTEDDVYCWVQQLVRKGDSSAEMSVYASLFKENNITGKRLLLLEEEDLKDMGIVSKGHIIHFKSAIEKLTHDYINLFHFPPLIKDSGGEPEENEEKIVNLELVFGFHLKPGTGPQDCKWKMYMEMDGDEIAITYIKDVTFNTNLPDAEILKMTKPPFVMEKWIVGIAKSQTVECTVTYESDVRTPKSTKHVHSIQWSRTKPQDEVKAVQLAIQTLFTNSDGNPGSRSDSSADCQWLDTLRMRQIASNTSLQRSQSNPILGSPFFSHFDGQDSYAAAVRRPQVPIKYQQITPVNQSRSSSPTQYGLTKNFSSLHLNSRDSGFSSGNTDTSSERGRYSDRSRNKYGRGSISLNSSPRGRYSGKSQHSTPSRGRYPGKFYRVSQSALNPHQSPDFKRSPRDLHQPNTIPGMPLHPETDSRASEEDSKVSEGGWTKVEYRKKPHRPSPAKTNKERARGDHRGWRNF

[15] = biological target: Serine/threonine-protein kinase LATS2 (Homo sapiens) (UniProt Q9NRM7); conditions: Compound concentration 1000.0 nM
Sequence of Serine/threonine-protein kinase LATS2 (Homo sapiens) (Q9NRM7 whole entry): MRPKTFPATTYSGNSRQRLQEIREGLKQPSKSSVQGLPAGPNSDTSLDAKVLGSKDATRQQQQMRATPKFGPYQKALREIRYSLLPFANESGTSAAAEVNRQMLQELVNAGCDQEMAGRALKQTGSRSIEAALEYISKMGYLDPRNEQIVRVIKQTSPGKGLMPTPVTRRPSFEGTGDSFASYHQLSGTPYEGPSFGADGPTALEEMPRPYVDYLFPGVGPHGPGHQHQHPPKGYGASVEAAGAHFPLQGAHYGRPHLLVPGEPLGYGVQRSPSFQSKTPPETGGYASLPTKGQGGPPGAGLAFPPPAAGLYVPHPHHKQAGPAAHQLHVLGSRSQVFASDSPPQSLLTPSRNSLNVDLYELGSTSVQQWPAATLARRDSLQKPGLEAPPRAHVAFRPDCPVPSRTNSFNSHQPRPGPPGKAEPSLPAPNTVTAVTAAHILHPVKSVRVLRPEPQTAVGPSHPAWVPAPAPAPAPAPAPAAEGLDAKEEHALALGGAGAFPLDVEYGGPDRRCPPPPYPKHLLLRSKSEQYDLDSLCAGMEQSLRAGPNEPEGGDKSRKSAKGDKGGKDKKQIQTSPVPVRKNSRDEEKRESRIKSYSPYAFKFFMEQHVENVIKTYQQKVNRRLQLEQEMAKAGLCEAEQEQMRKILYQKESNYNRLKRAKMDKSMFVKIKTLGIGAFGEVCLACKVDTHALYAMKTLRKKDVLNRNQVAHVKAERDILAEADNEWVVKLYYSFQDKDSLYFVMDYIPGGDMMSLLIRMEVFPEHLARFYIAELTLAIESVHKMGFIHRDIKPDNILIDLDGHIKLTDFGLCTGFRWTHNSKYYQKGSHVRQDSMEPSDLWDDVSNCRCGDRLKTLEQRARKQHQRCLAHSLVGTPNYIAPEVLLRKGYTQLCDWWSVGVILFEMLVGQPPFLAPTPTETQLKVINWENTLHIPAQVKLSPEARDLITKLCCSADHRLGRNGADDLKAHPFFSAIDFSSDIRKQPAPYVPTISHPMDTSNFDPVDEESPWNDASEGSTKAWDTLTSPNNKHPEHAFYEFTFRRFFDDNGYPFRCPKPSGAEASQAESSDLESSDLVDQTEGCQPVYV

[16] = biological target: Mitogen-activated protein kinase kinase kinase 9 (Homo sapiens) (UniProt P80192); conditions: Compound concentration 1000.0 nM
[17] = biological target: Phosphatidylinositol 4-kinase beta (Homo sapiens) (UniProt Q9UBF8); conditions: Compound concentration 1000.0 nM
[18] = biological target: Serine/threonine-protein kinase Nek11 (Homo sapiens) (UniProt Q8NG66); conditions: Compound concentration 1000.0 nM
[19] = biological target: Platelet-derived growth factor receptor beta (Homo sapiens) (UniProt P09619); conditions: Compound concentration 1000.0 nM
[20] = biological target: Cyclin-dependent kinase 4 (Homo sapiens) (UniProt P11802); conditions: Compound concentration 1000.0 nM
[21] = biological target: Dual specificity mitogen-activated protein kinase kinase 5 (Homo sapiens) (UniProt Q13163); conditions: Compound concentration 1000.0 nM
[22] = biological target: Activin receptor type-1 (Homo sapiens) (UniProt Q04771); conditions: Compound concentration 1000.0 nM
[23] = biological target: Serine/threonine-protein kinase RIO3 (Homo sapiens) (UniProt O14730); conditions: Compound concentration 1000.0 nM
Sequence of Serine/threonine-protein kinase RIO3 (Homo sapiens) (O14730 whole entry): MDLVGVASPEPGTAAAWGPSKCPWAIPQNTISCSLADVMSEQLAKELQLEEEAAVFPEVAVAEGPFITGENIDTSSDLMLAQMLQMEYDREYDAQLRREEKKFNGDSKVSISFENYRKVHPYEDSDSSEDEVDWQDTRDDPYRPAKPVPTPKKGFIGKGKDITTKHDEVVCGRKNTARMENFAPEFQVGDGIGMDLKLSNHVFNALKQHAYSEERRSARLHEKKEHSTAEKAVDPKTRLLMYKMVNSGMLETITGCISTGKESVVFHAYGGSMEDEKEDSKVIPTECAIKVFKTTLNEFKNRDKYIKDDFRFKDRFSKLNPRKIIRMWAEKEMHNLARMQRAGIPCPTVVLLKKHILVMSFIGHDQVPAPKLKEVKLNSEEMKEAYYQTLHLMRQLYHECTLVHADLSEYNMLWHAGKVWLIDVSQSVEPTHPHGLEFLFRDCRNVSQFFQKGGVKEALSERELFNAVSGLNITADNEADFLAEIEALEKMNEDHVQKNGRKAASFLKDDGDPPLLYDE

[24] = biological target: Atypical kinase COQ8B, mitochondrial (Homo sapiens) (UniProt Q96D53); conditions: Compound concentration 1000.0 nM
[25] = test system: Leucine-rich repeat serine/threonine-protein kinase 2 (Homo sapiens), Q5S007 [G2019S]; conditions: Compound concentration 1000.0 nM
[26] = biological target: 5-hydroxytryptamine receptor 1B (Homo sapiens) (UniProt P28222); conditions: Compound concentration 10.0 uM
[27] = biological target: Serine/threonine-protein kinase TNNI3K (Homo sapiens) (UniProt Q59H18); conditions: Compound concentration 1000.0 nM
[28] = biological target: Macrophage colony-stimulating factor 1 receptor (Homo sapiens) (UniProt P07333); conditions: Compound concentration 1000.0 nM
[29] = biological target: Insulin receptor (Homo sapiens) (UniProt P06213); conditions: Compound concentration 1000.0 nM
[30] = test system: Epidermal growth factor receptor (Homo sapiens), P00533 [UNDEFINED MUTATION]; conditions: Compound concentration 1000.0 nM
[31] = biological target: Fibroblast growth factor receptor 1 (Homo sapiens) (UniProt P11362); conditions: Compound concentration 1000.0 nM
[32] = biological target: Serine/threonine-protein kinase PAK 6 (Homo sapiens) (UniProt Q9NQU5); conditions: Compound concentration 1000.0 nM
Sequence of Serine/threonine-protein kinase PAK 6 (Homo sapiens) (Q9NQU5 whole entry, looked up): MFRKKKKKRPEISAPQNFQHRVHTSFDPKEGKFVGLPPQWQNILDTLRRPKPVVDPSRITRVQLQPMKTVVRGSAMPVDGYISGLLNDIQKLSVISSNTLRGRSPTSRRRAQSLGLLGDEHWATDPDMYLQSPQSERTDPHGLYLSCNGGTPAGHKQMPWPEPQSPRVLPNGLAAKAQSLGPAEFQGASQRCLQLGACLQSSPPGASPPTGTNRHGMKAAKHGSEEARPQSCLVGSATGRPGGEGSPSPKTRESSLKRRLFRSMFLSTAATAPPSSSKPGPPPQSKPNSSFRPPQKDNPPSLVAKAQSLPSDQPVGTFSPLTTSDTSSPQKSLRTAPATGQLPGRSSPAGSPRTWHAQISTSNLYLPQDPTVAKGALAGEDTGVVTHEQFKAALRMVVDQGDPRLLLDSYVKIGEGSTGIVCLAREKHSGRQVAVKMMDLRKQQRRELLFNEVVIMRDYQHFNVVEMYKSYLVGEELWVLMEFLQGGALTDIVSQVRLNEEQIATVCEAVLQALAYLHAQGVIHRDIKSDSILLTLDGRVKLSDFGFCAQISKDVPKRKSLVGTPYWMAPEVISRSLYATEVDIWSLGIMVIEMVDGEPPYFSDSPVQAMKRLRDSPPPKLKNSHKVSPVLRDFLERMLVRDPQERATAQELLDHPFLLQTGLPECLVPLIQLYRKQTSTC

[33] = biological target: Cyclin-dependent kinase 13 (Homo sapiens) (UniProt Q14004); conditions: Compound concentration 1000.0 nM
[34] = biological target: Sodium-dependent serotonin transporter (Homo sapiens) (UniProt P31645); conditions: Compound concentration 10.0 uM
[35] = biological target: Serine/threonine-protein kinase Nek2 (Homo sapiens) (UniProt P51955); conditions: Compound concentration 1000.0 nM
[36] = biological target: LIM domain kinase 1 (Homo sapiens) (UniProt P53667); conditions: Compound concentration 1000.0 nM
[37] = biological target: Serine/threonine-protein kinase PRP4 homolog (Homo sapiens) (UniProt Q13523); conditions: Compound concentration 1000.0 nM
[38] = biological target: Ribosomal protein S6 kinase alpha-4 (Homo sapiens) (UniProt O75676); conditions: Compound concentration 1000.0 nM
[39] = biological target: Phosphatidylinositol 4,5-bisphosphate 3-kinase catalytic subunit alpha isoform (Homo sapiens) (UniProt P42336); conditions: Compound concentration 1000.0 nM
[40] = test system: Tyrosine-protein kinase ABL1 (Homo sapiens), P00519 [Q252H]; conditions: Compound concentration 1000.0 nM
[41] = test system: Tyrosine-protein kinase ABL1 (Homo sapiens), P00519 [H396P]; conditions: Compound concentration 1000.0 nM
[42] = biological target: Cyclin-dependent kinase 14 (Homo sapiens) (UniProt O94921); conditions: Compound concentration 1000.0 nM
[43] = test system: Mast/stem cell growth factor receptor Kit (Homo sapiens), P10721 [V559D]; conditions: Compound concentration 1000.0 nM
[44] = biological target: Alpha-2A adrenergic receptor (Homo sapiens) (UniProt P08913); conditions: Compound concentration 10.0 uM
Sequence of Alpha-2A adrenergic receptor (Homo sapiens) (P08913 whole entry): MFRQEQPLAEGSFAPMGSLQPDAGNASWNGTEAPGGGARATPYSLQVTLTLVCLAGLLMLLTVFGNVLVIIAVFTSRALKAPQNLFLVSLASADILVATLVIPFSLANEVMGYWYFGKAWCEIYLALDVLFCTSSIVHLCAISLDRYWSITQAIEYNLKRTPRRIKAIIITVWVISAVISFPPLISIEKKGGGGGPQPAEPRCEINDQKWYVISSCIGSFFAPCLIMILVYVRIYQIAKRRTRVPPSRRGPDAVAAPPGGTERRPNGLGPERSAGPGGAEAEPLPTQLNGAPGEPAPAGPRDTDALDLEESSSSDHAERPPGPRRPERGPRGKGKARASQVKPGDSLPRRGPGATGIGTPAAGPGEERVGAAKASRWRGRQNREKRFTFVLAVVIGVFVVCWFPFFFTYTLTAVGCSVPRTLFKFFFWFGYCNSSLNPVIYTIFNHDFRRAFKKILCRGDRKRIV

[45] = biological target: Dual specificity tyrosine-phosphorylation-regulated kinase 2 (Homo sapiens) (UniProt Q92630); conditions: Compound concentration 1000.0 nM
Sequence of Dual specificity tyrosine-phosphorylation-regulated kinase 2 (Homo sapiens) (Q92630 whole entry): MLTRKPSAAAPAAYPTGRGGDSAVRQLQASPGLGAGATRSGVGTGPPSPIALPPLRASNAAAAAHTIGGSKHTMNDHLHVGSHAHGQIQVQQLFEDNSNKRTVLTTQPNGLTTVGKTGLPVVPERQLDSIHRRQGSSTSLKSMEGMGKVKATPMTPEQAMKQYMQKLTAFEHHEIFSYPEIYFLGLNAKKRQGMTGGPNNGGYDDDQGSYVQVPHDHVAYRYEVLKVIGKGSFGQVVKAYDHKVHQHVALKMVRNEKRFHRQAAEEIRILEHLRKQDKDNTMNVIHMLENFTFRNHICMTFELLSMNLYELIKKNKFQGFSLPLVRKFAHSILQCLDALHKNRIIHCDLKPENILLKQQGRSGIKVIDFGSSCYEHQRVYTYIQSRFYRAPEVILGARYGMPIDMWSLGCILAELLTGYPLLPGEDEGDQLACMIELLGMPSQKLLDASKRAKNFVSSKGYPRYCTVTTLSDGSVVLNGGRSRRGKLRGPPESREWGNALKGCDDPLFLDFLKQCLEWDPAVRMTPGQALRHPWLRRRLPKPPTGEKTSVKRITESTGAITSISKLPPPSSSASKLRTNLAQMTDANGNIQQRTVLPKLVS

Sequence of Protein kinase C delta type (Homo sapiens) (Q05655 whole entry, looked up, the tested form may be a part): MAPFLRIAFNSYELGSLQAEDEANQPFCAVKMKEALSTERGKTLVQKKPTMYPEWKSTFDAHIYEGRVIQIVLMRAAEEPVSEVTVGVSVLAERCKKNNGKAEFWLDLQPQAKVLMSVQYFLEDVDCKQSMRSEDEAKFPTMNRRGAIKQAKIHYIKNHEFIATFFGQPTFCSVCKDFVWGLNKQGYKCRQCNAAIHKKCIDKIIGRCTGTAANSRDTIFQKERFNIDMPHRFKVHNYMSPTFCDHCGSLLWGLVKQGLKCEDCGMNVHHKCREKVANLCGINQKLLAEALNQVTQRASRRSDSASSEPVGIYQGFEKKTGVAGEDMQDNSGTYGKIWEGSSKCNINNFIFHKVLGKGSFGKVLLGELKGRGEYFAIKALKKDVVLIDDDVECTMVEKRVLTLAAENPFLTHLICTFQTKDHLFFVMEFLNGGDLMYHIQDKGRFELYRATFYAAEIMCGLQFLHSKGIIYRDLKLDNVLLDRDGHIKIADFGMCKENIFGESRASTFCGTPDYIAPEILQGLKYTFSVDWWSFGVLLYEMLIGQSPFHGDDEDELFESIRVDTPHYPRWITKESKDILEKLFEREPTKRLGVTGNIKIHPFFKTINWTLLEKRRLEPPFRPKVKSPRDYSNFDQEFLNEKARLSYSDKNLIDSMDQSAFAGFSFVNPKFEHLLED

N#Cc1ccc(Nc2ccc3[nH]c(=O)[nH]c3c2)c(Cl)c1
inactive: residual activity [1] 95% | residual activity [2] 96% | residual activity [3] 100% | residual activity [4] 100% | residual activity [5] 100% | residual activity [6] 100% | residual activity [7] 100% | residual activity [8] 100% | residual activity [9] 92% | inhibition [10] 4.98% | inhibition [11] 14% | residual activity [12] 98% | residual activity [13] 100% | residual activity [14] 100% | residual activity [15] 95% | residual activity [16] 100% | residual activity [17] 100% | residual activity [18] 100% | residual activity [19] 100% | residual activity [20] 91% | residual activity [21] 100% | residual activity [22] 89% | residual activity [23] 100% | residual activity [24] 100% | residual activity [25] 93% | inhibition [26] 6.7% | residual activity [27] 65% | residual activity [28] 97% | residual activity [29] 95% | residual activity [30] 100% | residual activity [31] 100% | residual activity [32] 85% | residual activity [33] 100% | inhibition [34] 21.1% | residual activity [35] 93% | residual activity [36] 100% | residual activity [37] 99% | residual activity [38] 70% | residual activity [39] 77% | residual activity [40] 89% | residual activity [41] 93% | residual activity [42] 100% | residual activity [43] 100% | inhibition [44] 2.09% | residual activity [45] 85%

O=C1CCc2cc(Nc3cc(OC4CCOCC4)c([N+](=O)[O-])cc3Cl)ccc2N1
inactive: residual activity [1] 94% | residual activity [2] 82% | residual activity [3] 100% | residual activity [4] 100% | residual activity [5] 93% | residual activity [6] 100% | residual activity [7] 90% | residual activity [8] 100% | residual activity [9] 78% | inhibition [10] 3.3% | inhibition [11] 13.6% | residual activity [12] 100% | residual activity [13] 100% | residual activity [14] 81% | residual activity [15] 80% | residual activity [16] 90% | residual activity [17] 100% | residual activity [18] 100% | residual activity [19] 97% | residual activity [20] 90% | residual activity [21] 100% | residual activity [22] 100% | residual activity [23] 100% | residual activity [24] 100% | residual activity [25] 100% | inhibition [26] 14.3% | residual activity [27] 60% | residual activity [28] 96% | residual activity [29] 93% | residual activity [30] 100% | residual activity [31] 93% | residual activity [32] 86% | residual activity [33] 100% | inhibition [34] 23.5% | residual activity [35] 95% | residual activity [36] 100% | residual activity [37] 100% | residual activity [38] 65% | residual activity [39] 79% | residual activity [40] 79% | residual activity [41] 89% | residual activity [42] 100% | residual activity [43] 100% | inhibition [44] 4.66% | residual activity [45] 97%

Reference: ChEMBL document CHEMBL4507304, “Data for DCP probe TP-021” (2021)
